Reference: patent publication US12227495B2, “Herbicidal compounds” (SYNGENTA CROP PROTECTION AG, priority 2018, dated 2025)

Key:
Assay type in all cases: in vivo
[1] = system: Lolium perenne (LOLPE); assay: Post-emergence herbicide test, glasshouse, percentage damage; conditions: 1000 g/ha, evaluated after 13 days
In short: (§1)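 Compounds are applied as aqueous sprays at 500 g/ha, unless otherwise stated, either one day after sowing or to 8-day-old plants. Injury is assessed after 13 days and expressed on a 1-5 scale, where 5 means 81-100% damage.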

[2] = system: Solanum nigrum (SOLNI); assay: as above; conditions: 1000 g/ha, evaluated after 13 days
In short: as §1

[3] = system: Setaria faberi (SETFA); assay: as above; conditions: 1000 g/ha, evaluated after 13 days
In short: as §1

[4] = system: Amaranthus retoflexus (AMARE); assay: as above; conditions: 1000 g/ha, evaluated after 13 days
In short: as §1

[5] = system: Ipomoea hederacea (IPOHE); assay: as above; conditions: 1000 g/ha, evaluated after 13 days
In short: as §1

[6] = system: Echinochloa crus-galli (ECHCG); assay: as above; conditions: 1000 g/ha, evaluated after 13 days
In short: as §1

[7] = system: Lolium perenne (LOLPE); assay: Pre-emergence herbicide test, glasshouse, percentage damage; conditions: rate 1000 g/ha, evaluated after 13 days
In short: as §1

[8] = system: Solanum nigrum (SOLNI); assay: as above; conditions: rate 1000 g/ha, evaluated after 13 days
In short: as §1

[9] = system: Setaria faberi (SETFA); assay: as above; conditions: rate 1000 g/ha, evaluated after 13 days
In short: as §1

[10] = system: Amaranthus retoflexus (AMARE); assay: as above; conditions: rate 1000 g/ha, evaluated after 13 days
In short: as §1

[11] = system: Ipomoea hederacea (IPOHE); assay: as above; conditions: rate 1000 g/ha, evaluated after 13 days
In short: as §1

[12] = system: Echinochloa crus-galli (ECHCG); assay: as above; conditions: rate 1000 g/ha, evaluated after 13 days
In short: as §1

| Structure (SMILES) | percentage damage caused to the plant, LOLPE [1] | percentage damage caused to the plant, SOLNI [2] | percentage damage caused to the plant, SETFA [3] | percentage damage caused to the plant, AMARE [4] | percentage damage caused to the plant, IPOHE [5] | percentage damage caused to the plant, ECHCG [6] | Pre-emergence Test LOLPE percentage damage (five point scale) [7] | Pre-emergence Test SOLNI percentage damage (five point scale) [8] | Pre-emergence Test SETFA percentage damage (five point scale) [9] | Pre-emergence Test AMARE percentage damage (five point scale) [10] | Pre-emergence Test IPOHE percentage damage (five point scale) [11] | Pre-emergence Test ECHCG percentage damage (five point scale) [12] |
| --- | --- | --- | --- | --- | --- | --- | --- | --- | --- | --- | --- | --- |
| Fc1cccc(Oc2cccc(C(F)(F)F)n2)c1-c1cc(C(F)F)no1 [Compound A47] | 1 (1=0-20%) | 3 (3=41-60%) | 1 (1=0-20%) | 3 (3=41-60%) | 1 (1=0-20%) | 1 (1=0-20%) | 1 (1=0-20%) | 1 (1=0-20%) | 1 (1=0-20%) | 1 (1=0-20%) | 1 (1=0-20%) | 1 (1=0-20%) |
| Fc1cccc(Oc2cccc(OC(F)F)n2)c1-c1cc(C(F)F)no1 [Compound A48] | 1 (1=0-20%) | 5 (5=81-100%) | 2 (2=21-40%) | 5 (5=81-100%) | 2 (2=21-40%) | 1 (1=0-20%) | 1 (1=0-20%) | 1 (1=0-20%) | 1 (1=0-20%) | 1 (1=0-20%) | 1 (1=0-20%) | 1 (1=0-20%) |
| N#Cc1cccnc1Oc1cccc(F)c1-c1cc(C(F)F)no1 [Compound A49] | 1 (1=0-20%) | 5 (5=81-100%) | 2 (2=21-40%) | 5 (5=81-100%) | 3 (3=41-60%) | 3 (3=41-60%) | 1 (1=0-20%) | 5 (5=81-100%) | 5 (5=81-100%) | 5 (5=81-100%) | 1 (1=0-20%) | 3 (3=41-60%) |
| Fc1ccc(Oc2cccc(F)c2-c2cc(C(F)F)no2)nc1F [Compound A50] | 1 (1=0-20%) | 5 (5=81-100%) | 3 (3=41-60%) | 3 (3=41-60%) | 1 (1=0-20%) | 2 (2=21-40%) | 1 (1=0-20%) | 4 (4=61-80%) | 4 (4=61-80%) | 4 (4=61-80%) | 1 (1=0-20%) | 1 (1=0-20%) |
| Fc1cccc(Oc2ncc(C(F)(F)F)cc2Cl)c1-c1cc(C(F)F)no1 [Compound A51] | 1 (1=0-20%) | 5 (5=81-100%) | 1 (1=0-20%) | 4 (4=61-80%) | 1 (1=0-20%) | 1 (1=0-20%) | 1 (1=0-20%) | 1 (1=0-20%) | 1 (1=0-20%) | 1 (1=0-20%) | 1 (1=0-20%) | 1 (1=0-20%) |
| Cc1cccc(Oc2ncc(Cl)cc2F)c1-n1cc(C(F)(F)F)cn1 [Compound A54] | 4 (4=61-80%) | 5 (5=81-100%) | 5 (5=81-100%) | 3 (3=41-60%) | 1 (1=0-20%) | 3 (3=41-60%) | 5 (5=81-100%) | 5 (5=81-100%) | 5 (5=81-100%) | 5 (5=81-100%) | 1 (1=0-20%) | 3 (3=41-60%) |
| Fc1cccc(Oc2cccc(C(F)F)n2)c1-c1cc(C(F)F)no1 [Compound A55] | 1 (1=0-20%) | 5 (5=81-100%) | 2 (2=21-40%) | 5 (5=81-100%) | 1 (1=0-20%) | 1 (1=0-20%) | 1 (1=0-20%) | 2 (2=21-40%) | 4 (4=61-80%) | 2 (2=21-40%) | 1 (1=0-20%) | 1 (1=0-20%) |
| Fc1cc(Cl)cnc1Oc1cccc(F)c1-n1cc(C(F)(F)F)cn1 [Compound A58] | 5 (5=81-100%) | 5 (5=81-100%) | 5 (5=81-100%) | 5 (5=81-100%) | 5 (5=81-100%) | 4 (4=61-80%) | 5 (5=81-100%) | 5 (5=81-100%) | 5 (5=81-100%) | 5 (5=81-100%) | 5 (5=81-100%) | 5 (5=81-100%) |
| Fc1cc(Cl)cnc1Oc1cccc(Br)c1-n1cc(C(F)(F)F)cn1 [Compound A59] | 4 (4=61-80%) | 5 (5=81-100%) | 5 (5=81-100%) | 5 (5=81-100%) | 5 (5=81-100%) | 3 (3=41-60%) | 4 (4=61-80%) | 5 (5=81-100%) | 5 (5=81-100%) | 5 (5=81-100%) | 2 (2=21-40%) | 2 (2=21-40%) |
| Fc1cccc(Oc2cc(Cl)ccn2)c1-c1cc(C(F)F)no1 [Compound A60] | 1 (1=0-20%) | 4 (4=61-80%) | 2 (2=21-40%) | 4 (4=61-80%) | 2 (2=21-40%) | 1 (1=0-20%) | 1 (1=0-20%) | 1 (1=0-20%) | 1 (1=0-20%) | 5 (5=81-100%) | 1 (1=0-20%) | 2 (2=21-40%) |
